Laboratory results taken from PubChem BioAssay (NCI).
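The compound was tested at five concentrations on cells cultured in 96-well plates, with a 48-hour exposure period. GI50 marks 50% less growth. TGI is the concentration that stops growth completely.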

Key:
Experiment in all cases: NCI tumour cell line growth inhibition, 48 h
UO-31 renal = tested on: UO-31 renal
LOX IMVI melanoma = tested on: LOX IMVI melanoma
786-0 renal = tested on: 786-0 renal
OVCAR-8 ovarian = tested on: OVCAR-8 ovarian
HOP-92 NSCLC = tested on: HOP-92 NSCLC
HT29 colon = tested on: HT29 colon
SNB-75 CNS = tested on: SNB-75 CNS
NCI-H460 lung = tested on: NCI-H460 lung
SW-620 colon = tested on: SW-620 colon
EKVX NSCLC = tested on: EKVX NSCLC
M14 melanoma = tested on: M14 melanoma
HCT-116 colon = tested on: HCT-116 colon
SK-MEL-5 melanoma = tested on: SK-MEL-5 melanoma
RXF 393 renal = tested on: RXF 393 renal
NCI-H226 lung = tested on: NCI-H226 lung
CAKI-1 renal = tested on: CAKI-1 renal
PC-3 prostate = tested on: PC-3 prostate
NCI-H23 lung = tested on: NCI-H23 lung
UACC-62 melanoma = tested on: UACC-62 melanoma
BT-549 breast = tested on: BT-549 breast
OVCAR-5 ovarian = tested on: OVCAR-5 ovarian
DU-145 prostate = tested on: DU-145 prostate
SR leukemia = tested on: SR leukemia
HL-60(TB) leukemia = tested on: HL-60(TB) leukemia
HCC-2998 colon = tested on: HCC-2998 colon
RPMI-8226 leukemia = tested on: RPMI-8226 leukemia
MOLT-4 leukemia = tested on: MOLT-4 leukemia
TK-10 renal = tested on: TK-10 renal
SF-539 CNS = tested on: SF-539 CNS
A498 renal = tested on: A498 renal
SK-MEL-28 melanoma = tested on: SK-MEL-28 melanoma
NCI-H522 lung = tested on: NCI-H522 lung
SF-295 CNS = tested on: SF-295 CNS
SK-MEL-2 melanoma = tested on: SK-MEL-2 melanoma
HS 578T breast = tested on: HS 578T breast
IGROV1 ovarian = tested on: IGROV1 ovarian
SK-OV-3 ovarian = tested on: SK-OV-3 ovarian
MDA-MB-231 breast = tested on: MDA-MB-231 breast
MCF7 breast = tested on: MCF7 breast
ACHN renal = tested on: ACHN renal
NCI/ADR-RES ovarian = tested on: NCI/ADR-RES ovarian
HCT-15 colon = tested on: HCT-15 colon
KM12 colon = tested on: KM12 colon
SF-268 CNS = tested on: SF-268 CNS
MDA-MB-435 = tested on: MDA-MB-435
OVCAR-3 ovarian = tested on: OVCAR-3 ovarian
COLO 205 colon = tested on: COLO 205 colon
HOP-62 NSCLC = tested on: HOP-62 NSCLC
SN12C renal = tested on: SN12C renal
U251 CNS = tested on: U251 CNS
K-562 leukemia = tested on: K-562 leukemia
T-47D breast = tested on: T-47D breast
A549 NSCLC = tested on: A549 NSCLC
UACC-257 melanoma = tested on: UACC-257 melanoma
SNB-19 CNS = tested on: SNB-19 CNS

## COc1ccc(N(C)c2c3ccccc3nc3[nH]c4ccccc4c23)cc1
UO-31 renal
  GI50: 2.83 µM
  TGI: 22.2 µM
LOX IMVI melanoma
  GI50: 0.55 µM
  TGI: 1.58 µM
786-0 renal
  GI50: 0.444 µM
  TGI: 1.9 µM
OVCAR-8 ovarian
  GI50: 0.798 µM
  TGI: 7.42 µM
HOP-92 NSCLC
  GI50: 1.07 µM
  TGI: 4.49 µM
HT29 colon
  GI50: 0.617 µM
  TGI: 10.3 µM
SNB-75 CNS
  GI50: 5.19 µM
  TGI: 23.6 µM
NCI-H460 lung
  GI50: 0.151 µM
  TGI: 7.12 µM
SW-620 colon
  GI50: 0.582 µM
  TGI: 26.4 µM
EKVX NSCLC
  GI50: 1.06 µM
  TGI: 4.12 µM
M14 melanoma
  GI50: 0.837 µM
  TGI: 1.67 µM
HCT-116 colon
  GI50: 0.279 µM
  TGI: 1.01 µM
SK-MEL-5 melanoma
  GI50: 0.835 µM
  TGI: 2.24 µM
RXF 393 renal
  GI50: 5.4 µM
  TGI: 22.3 µM
NCI-H226 lung
  GI50: 0.9 µM
  TGI: 3.99 µM
CAKI-1 renal
  GI50: 0.774 µM
  TGI: 3.07 µM
PC-3 prostate
  GI50: 0.424 µM
  TGI: 2.63 µM
NCI-H23 lung
  GI50: 0.702 µM
  TGI: 2.04 µM
UACC-62 melanoma
  GI50: 0.875 µM
  TGI: 2.64 µM
BT-549 breast
  GI50: 1.24 µM
  TGI: 4.39 µM
OVCAR-5 ovarian
  GI50: 0.917 µM
  TGI: 4.57 µM
DU-145 prostate
  GI50: 0.675 µM
  TGI: 3.69 µM
SR leukemia
  GI50: 0.186 µM
  TGI: 50 µM
HL-60(TB) leukemia
  GI50: 0.112 µM
  TGI: 0.466 µM
HCC-2998 colon
  GI50: 0.268 µM
  TGI: 1.02 µM
RPMI-8226 leukemia
  GI50: 0.139 µM
  TGI: 0.528 µM
MOLT-4 leukemia
  GI50: 0.0883 µM
  TGI: 50 µM
TK-10 renal
  GI50: 0.681 µM
  TGI: 1.63 µM
SF-539 CNS
  GI50: 0.354 µM
  TGI: 1.31 µM
A498 renal
  GI50: 0.939 µM
  TGI: 2.61 µM
SK-MEL-28 melanoma
  GI50: 3.86 µM
  TGI: 21.8 µM
NCI-H522 lung
  GI50: 4.98 µM
  TGI: 9.55 µM
SF-295 CNS
  GI50: 0.387 µM
  TGI: 2.59 µM
SK-MEL-2 melanoma
  GI50: 6.16 µM
  TGI: 26.1 µM
HS 578T breast
  GI50: 2.55 µM
  TGI: 11 µM
IGROV1 ovarian
  GI50: 2.19 µM
  TGI: 13.5 µM
SK-OV-3 ovarian
  GI50: 0.778 µM
  TGI: 4.52 µM
MDA-MB-231 breast
  GI50: 0.616 µM
  TGI: 2.05 µM
MCF7 breast
  GI50: 0.168 µM
  TGI: 0.655 µM
ACHN renal
  GI50: 0.558 µM
  TGI: 2.16 µM
NCI/ADR-RES ovarian
  GI50: 2.95 µM
  TGI: 9.91 µM
HCT-15 colon
  GI50: 2.29 µM
  TGI: 9.3 µM
KM12 colon
  GI50: 0.296 µM
  TGI: 1.24 µM
SF-268 CNS
  GI50: 0.373 µM
  TGI: 2.27 µM
MDA-MB-435
  GI50: 1.12 µM
  TGI: 3.22 µM
OVCAR-3 ovarian
  GI50: 0.261 µM
  TGI: 1.16 µM
COLO 205 colon
  GI50: 0.347 µM
  TGI: 6.13 µM
HOP-62 NSCLC
  GI50: 0.407 µM
  TGI: 1.79 µM
SN12C renal
  GI50: 0.392 µM
  TGI: 1.53 µM
U251 CNS
  GI50: 0.525 µM
  TGI: 2.39 µM
K-562 leukemia
  GI50: 0.558 µM
  TGI: 16.3 µM
T-47D breast
  GI50: 0.986 µM
  TGI: 2.61 µM
A549 NSCLC
  GI50: 0.724 µM
  TGI: 9.19 µM
UACC-257 melanoma
  GI50: 3.48 µM
  TGI: 10 µM
SNB-19 CNS
  GI50: 0.634 µM
  TGI: 5.62 µM
